In one experiment the target is T1, Recombinant human Farnesyl Pyrophosphate synthase (FPPS) (Homo sapiens, UniProt P14324).
T1 construct: made in house
T1 sequence (P14324 72-419 limits assumed): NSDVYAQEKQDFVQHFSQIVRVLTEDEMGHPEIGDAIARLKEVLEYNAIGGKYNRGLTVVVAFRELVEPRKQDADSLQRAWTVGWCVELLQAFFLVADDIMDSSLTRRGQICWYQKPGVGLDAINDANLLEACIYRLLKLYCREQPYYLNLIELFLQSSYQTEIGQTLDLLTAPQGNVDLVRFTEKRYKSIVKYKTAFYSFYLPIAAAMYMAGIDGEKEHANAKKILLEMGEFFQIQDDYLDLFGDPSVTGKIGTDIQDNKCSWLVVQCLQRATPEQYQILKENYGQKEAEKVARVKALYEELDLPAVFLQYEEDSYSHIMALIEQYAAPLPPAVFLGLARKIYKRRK
Kind of experiment: FPPS SPA (scintillation proximity FlashPlate assay of FPPS inhibition). Type of experiment: biochemical. The conditions noted are these: Example 13 table; FPPS SPA; read-out: IC50. A general note: Scintillation proximity formats need no separation of bound from free tracer.
Take `O=C(O)c1ccc(-c2ccc(CO)cc2)cc1OCc1cccc2ccccc12` [13 as)]: the IC50 (commonly the midpoint of a concentration-inhibition curve) was found to be 380 nM.

In the case of `COc1ccc2cc(-c3ccc(C(=O)O)c(OCc4cccc5ccccc45)c3)ccc2c1` [13 ay)], the IC50 is 380 nM.

Take `O=C(O)c1ccc(-c2ccc(Cl)c(Cl)c2)cc1OCc1cccc2ccccc12` [13 ac)]: the IC50 was 1460 nM.

Consider `O=C(O)c1ccc(-c2cc3ccccc3o2)cc1OCc1cccc2ccccc12` [13 al)], for which the IC50 is 1120 nM.

In the case of `Cc1cccc(C)c1-c1ccc(C(=O)O)c(OCc2cccc3ccccc23)c1` [13 ag)], the IC50 stood at 1100 nM.

Turning to `O=C(O)c1ccc(-c2ccc3[nH]ccc3c2)cc1OCc1cccc2ccccc12` [13 am)], the IC50 is 340 nM.

With `COc1ccccc1-c1ccc(C(=O)O)c(OCc2cccc3ccccc23)c1` [13 ap)], the IC50 was found to be 1930 nM.

As to `O=C(O)c1ccc(-c2ccoc2)cc1OCc1cccc2ccccc12` [13 aj)], the IC50 was found to be 550 nM.

Consider `O=C(O)c1ccc(-c2csc3ccccc23)cc1OCc1cccc2ccccc12` [13 an)], for which the IC50 worked out at 1350 nM.

As for `COc1ccc(-c2ccc(C(=O)O)c(OCc3cccc4ccccc34)c2)cc1OC` [13 ab)], the IC50 came to 260 nM.

Consider `Cc1ccccc1-c1ccc(C(=O)O)c(OCc2cccc3ccccc23)c1` [13 ar)], for which the IC50 stood at 530 nM.

As to `CC(=O)Nc1ccc(-c2ccc(C(=O)O)c(OCc3cccc4ccccc34)c2)cc1` [13 da)], the IC50 is 130 nM.

As for `Cn1ccc2cc(-c3ccc(C(=O)O)c(OCc4cccc5ccccc45)c3)ccc21` [13 ca)], the IC50 was found to be 270 nM.

Regarding `O=C(O)c1ccc(-c2ccccc2F)cc1OCc1cccc2ccccc12` [13 ak)], the IC50 was 230 nM.

For `O=C(O)c1ccc(-c2ccc3c(c2)OCCO3)cc1OCc1cccc2ccccc12` [13 ao)], the IC50 stood at 420 nM.

For the compound `O=C(O)c1ccc(-c2cccc(O)c2)cc1OCc1cccc2ccccc12` [13 au)], the IC50 was 380 nM.

`Cc1cccc(-c2ccc(C(=O)O)c(OCc3cccc4ccccc34)c2)c1` [13 ax)]: the IC50 turned out to be 400 nM.

Consider `O=C(O)c1ccc(-c2cccc(OC(F)(F)F)c2)cc1OCc1cccc2ccccc12` [13 ae)], for which the IC50 is above 10000 nM.

On to `O=C(O)c1ccc(-c2cccc(F)c2)cc1OCc1cccc2ccccc12` [13 aq)], for which the IC50 was 1140 nM.

For the compound `O=C(O)c1ccc(-c2cccc3[nH]ccc23)cc1OCc1cccc2ccccc12` [13 ah)], the IC50 was 260 nM.

For `Cc1cc(Cl)ccc1-c1ccc(C(=O)O)c(OCc2cccc3ccccc23)c1` [13 aw)], the IC50 is 440 nM.

Turning to `O=C(O)c1ccc(-c2cccc(CO)c2)cc1OCc1cccc2ccccc12` [13 ad)], the IC50 came out at 500 nM.

As to `O=C(O)c1ccc(-c2ccc3c(c2)OCO3)cc1OCc1cccc2ccccc12` [13 ba)], the IC50 is 240 nM.

As to `COc1cccc(-c2ccc(C(=O)O)c(OCc3cccc4ccccc34)c2)c1` [13 af)], the IC50 was 1550 nM.

For the compound `O=C(O)c1ccc(-c2ccc(F)c(F)c2)cc1OCc1cccc2ccccc12` [13 ai)], the IC50 was found to be 320 nM.

The same experiment, now with this note: Example 15 table; FPPS SPA; read-out: IC50.
On to `CC1CCC(Nc2ccc(C(=O)O)c(OCc3cccc4ccccc34)c2)CC1` (centres unmarked) [15 ak)], for which the IC50 is 1240 nM.

On to `O=C(O)c1ccc(N[C@H]2CC[C@H](O)CC2)cc1OCc1cccc2ccccc12` [15 am)], for which the IC50 was 190 nM.

Consider `CCN(CC)CCN(C)c1ccc(C(=O)O)c(OCc2cccc3ccccc23)c1` [15 az)], for which the IC50 turned out to be 26600 nM.

For the compound `COCCN(C)c1ccc(C(=O)O)c(OCc2cccc3ccccc23)c1` [15 ae)], the IC50 worked out at 1390 nM.

Regarding `O=C(O)c1ccc(N2CCOCC2)cc1OCc1cccc2ccccc12` [15 au)], the IC50 is 3180 nM.

As for `CN1CCCN(c2ccc(C(=O)O)c(OCc3cccc4ccccc34)c2)CC1` [15 at)], the IC50 was determined as 6450 nM.

Take `O=C(O)c1ccc(NCC2CCCCC2)cc1OCc1cccc2ccccc12` [15 ag)]: the IC50 worked out at 2430 nM.

Consider `CCNc1ccc(C(=O)O)c(OCc2cccc3ccccc23)c1` [15 ao)], for which the IC50 is 730 nM.

`C[C@H](Nc1ccc(C(=O)O)c(OCc2cccc3ccccc23)c1)C1CCCCC1` [15 ai)]: the IC50 was 3520 nM.

As for `CCCNc1ccc(C(=O)O)c(OCc2cccc3ccccc23)c1` [15 al)], the IC50 came out at 370 nM.

With `CN(CCO)c1ccc(C(=O)O)c(OCc2cccc3ccccc23)c1` [15 af)], the 50% inhibitory concentration (IC50) turned out to be 720 nM.

Turning to `CN1CCN(c2ccc(C(=O)O)c(OCc3cccc4ccccc34)c2)CC1` [15 ba)], the IC50 is 38600 nM.

As to `CC(=O)N1CCN(c2ccc(C(=O)O)c(OCc3cccc4ccccc34)c2)CC1` [15 as)], the IC50 worked out at 6500 nM.

As for `CN1CCCC1CCNc1ccc(C(=O)O)c(OCc2cccc3ccccc23)c1` (centres unmarked) [15 ap)], the IC50 is 17500 nM.

With `O=C(O)c1ccc(NC2CCCCCC2)cc1OCc1cccc2ccccc12` [15 aj)], the IC50 worked out at 1790 nM.

In the case of `CC(Nc1ccc(C(=O)O)c(OCc2cccc3ccccc23)c1)C(C)(C)C` (centres unmarked) [15 aq)], the IC50 stood at 650 nM.

For the compound `O=C(O)c1ccc(N2CCCCCC2)cc1OCc1cccc2ccccc12` [15 ac)], the IC50 was found to be 530 nM.

Turning to `COCCNc1ccc(C(=O)O)c(OCc2cccc3ccccc23)c1` [15 ar)], the IC50 came to 8100 nM.

For the compound `CN1CCC(Nc2ccc(C(=O)O)c(OCc3cccc4ccccc34)c2)CC1` [15 aw)], the IC50 came out at 4750 nM.

In the case of `O=C(O)c1ccc(NC2CCCC2)cc1OCc1cccc2ccccc12` [15 aa)], the 50% inhibitory concentration (IC50) worked out at 630 nM.

For the compound `CC(C)(C)CNc1ccc(C(=O)O)c(OCc2cccc3ccccc23)c1` [15 ad)], the IC50 came out at 470 nM.

As to `CCCN(CC1CC1)c1ccc(C(=O)O)c(OCc2cccc3ccccc23)c1` [15 ah)], the IC50 stood at 1310 nM.

Take `O=C(O)c1ccc(NCCCO)cc1OCc1cccc2ccccc12` [15 ab)]: the IC50 is 2310 nM.

The same experiment, now with this note: Example 16 table; FPPS SPA; read-out: IC50.
Turning to `O=C(O)c1ccc(NCc2ccccc2)cc1OCc1cccc2ccccc12` [16 b)], the IC50 worked out at 210 nM.

As for `O=C(O)c1ccc(NCC2CC2)cc1OCc1cccc2ccccc12` [16 c)], the IC50 came to 1200 nM.

Still in this experiment, the particulars now being: IC50, Example 13 table; FPPS SPA.
Regarding `O=C(O)c1ccc(-c2ccc(Cl)cc2)cc1OCc1cccc2ccccc12` [13 av)], the IC50 is 690 nM.

For `O=C(O)c1ccc(-c2ccc(O)cc2)cc1OCc1cccc2ccccc12` [13 az)], the IC50 worked out at 380 nM.

As for `O=C(O)c1ccc(-c2ccc(F)cc2)cc1OCc1cccc2ccccc12` [13 at)], the IC50 is 300 nM.

The experiment is the same for the next values; noted with them: IC50, Example 15 table; FPPS SPA.
Turning to `CN(C)c1ccc(C(=O)O)c(OCc2cccc3ccccc23)c1` [15 an)], the IC50 is 190 nM.

The experiment is the same for the next values; noted with them: IC50 on FPPS, test system termed "FPS SPA" (Example 18).
With `O=C(O)c1ccccc1OCc1cccc2ccccc12` [Example 17 r)], the IC50 was 12500 nM.

Staying with this experiment, now noted: Inhibition according to the FPPS SPA (Example 21); read-out: IC50.
On to `CCN(CC)c1ccc(C(=O)O)c(OCc2cccc3ccccc23)c1` [17 i)], for which the IC50 came out at 400 nM.

Take `Cc1ccc2ccccc2c1COc1ccccc1C(=O)O` [17 b)]: the IC50 was found to be 340 nM.

`O=C(O)c1ccccc1OCc1cccc2ccccc12` [17 r)]: the IC50 was 12800 nM.

With `Cc1ccc(COc2ccccc2C(=O)O)c2ccccc12` [17 e)], the IC50 was 1830 nM.

Take `Cc1cc(O)c(C(=O)O)c(OCc2cccc3ccccc23)c1` [17 p)]: the IC50 was found to be 2500 nM.

For `O=C(O)c1ccc(Br)cc1OCc1cccc2ccccc12` [17 q)], the IC50 worked out at 6750 nM.

Turning to `CCN(CC)c1ccc(C(=O)O)c(OCc2c(Cl)ccc3ccccc23)c1` [17 a)], the IC50 stood at 770 nM.

Take `COc1ccc(OCc2cccc3ccccc23)c(C(=O)O)c1` [17 o)]: the IC50 was 880 nM.

On to `CCN(CC)c1ccc(C(=O)O)c(OCc2c(C)ccc3ccccc23)c1` [17 d)], for which the IC50 came to 660 nM.

Take `O=C(O)c1ccc(OC(F)(F)F)cc1OCc1cccc2ccccc12` [17 l)]: the IC50 is 2910 nM.

Take `Cc1ccc(C)n1-c1ccc(C(=O)O)c(OCc2cccc3ccccc23)c1` [17 g)]: the IC50 amounted to 240 nM.

Take `O=C(O)c1cc(Cl)ccc1OCc1cccc2ccccc12` [17 j)]: the IC50 was found to be 2960 nM.

Regarding `CC(C)CCOc1ccc(C(=O)O)c(OCc2cccc3ccccc23)c1` [17 m)], the IC50 was 1900 nM.

Consider `O=C(O)c1cc2ccccc2cc1OCc1cccc2ccccc12` [17 h)], for which the IC50 came out at 840 nM.

Regarding `COc1ccc(C(=O)O)c(OCc2cccc3ccccc23)c1` [17 s)], the IC50 was found to be 1340 nM.

With `Cc1ccc2ccccc2c1COc1cc(-n2c(C)ccc2C)ccc1C(=O)O` [17 c)], the IC50 stood at 480 nM.

`O=C(O)c1ccc(OCc2ccccc2)cc1OCc1cccc2ccccc12` [17 n)]: the IC50 came to 730 nM.

In the case of `CCN(CC)c1ccc(C(=O)O)c(OCc2cccc3ccc(Cl)cc23)c1` [17 f)], the IC50 amounted to 1820 nM.

As for `O=C(O)c1ccc(C(F)(F)F)cc1OCc1cccc2ccccc12` [17 k)], the IC50 was determined as 810 nM.

These data come from patent publication US20110288057A1, “SALICYLIC ACID DERIVATIVES BEING FARNESYL PYROPHOSPHATE SYNTHASE ACTIVITY INHIBITORS” (Novartis AG, priority 2008, published 2011).
